Reference: patent US20140023611A1 (priority 2010, published 2014)

Test system: not listed separately
Experiment: Determination of compound Cmax and AUC after oral gavage (plasma LC-MS/MS)
Format: in vivo, Sprague-Dawley rats
Settings: Sprague-Dawley, rat, plasma, po, Structure (I) examples, Table 15, actual oral dose 3-15 mg/kg, plasma 0.5-4 h
Description: (§1) Sprague-Dawley rats were orally gavaged with test article at a nominal dose of 2.5 or 10 mg/kg and blood was collected at 0.5, 1, 2 and 4 h. Blood samples were processed to plasma using K2EDTA as an anticoaglulant. Plasma samples were treated with acetonitrile containing an internal standard, precipitated proteins removed by centrifugation. Supernatants were analyzed by LC-MS/MS and compound concentrations were determined by interpolation from a standard curve prepared in plasma. All compounds were orally dosed at the dosage shown, and pharmacokinetic parameters determined.
as §1, with “interpolated” for “interpolation”
as §1, with “interpolated” for “interpolation”

For O=C(O)CCSCc1cccc(C(=O)Nc2ccc(N3CCCCC3)cc2-c2cc(C(=O)NCc3cccc(C(F)(F)F)c3)ccn2)c1 [Example 1.1, 3-(3-((2-(4-((3-(Trifluoromethyl)benzyl)carbamoyl)pyridin-2-yl)-4-(piperidin-1-yl)phenyl)carbamoyl)benzylthio)propanoic acid], which AUC is on record?
The AUC was > 50 ng·h/mL.

And the Cmax?
Its Cmax is < 50 ng/mL.

Target: T1, rat NaP2b (SLC34A2) (Rattus norvegicus, UniProt Q9JJ09)
T1 construct: host or cells: HEK293
T1 sequence (Q9JJ09 1-695): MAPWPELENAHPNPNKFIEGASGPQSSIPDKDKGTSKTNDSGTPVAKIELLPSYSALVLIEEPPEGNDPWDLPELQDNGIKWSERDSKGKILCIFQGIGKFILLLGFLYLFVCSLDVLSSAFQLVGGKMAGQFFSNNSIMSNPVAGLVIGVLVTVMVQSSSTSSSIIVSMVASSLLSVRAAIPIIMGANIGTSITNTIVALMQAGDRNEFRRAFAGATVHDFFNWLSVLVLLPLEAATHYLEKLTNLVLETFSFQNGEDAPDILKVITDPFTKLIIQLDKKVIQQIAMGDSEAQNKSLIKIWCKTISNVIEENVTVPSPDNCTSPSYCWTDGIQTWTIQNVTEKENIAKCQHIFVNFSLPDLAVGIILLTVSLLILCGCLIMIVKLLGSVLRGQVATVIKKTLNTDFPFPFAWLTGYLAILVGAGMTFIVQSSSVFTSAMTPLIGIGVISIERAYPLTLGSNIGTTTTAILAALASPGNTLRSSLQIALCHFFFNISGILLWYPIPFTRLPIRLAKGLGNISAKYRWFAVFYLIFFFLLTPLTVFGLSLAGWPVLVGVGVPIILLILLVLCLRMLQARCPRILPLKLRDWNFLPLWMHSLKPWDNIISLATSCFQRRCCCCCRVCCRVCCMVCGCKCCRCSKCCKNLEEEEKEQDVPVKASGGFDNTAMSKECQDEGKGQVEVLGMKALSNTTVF
Experiment: Inhibition of NaP2b-mediated Pi (33P) uptake in transfected HEK293 cells, rat NaP2b
Format: cell-based
Settings: 33P Pi uptake, 0.1 mM phosphate, value given as pIC50 range
In short: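 HEK293 cells were transiently transfected with NaP2b cDNA using Lipofectamine and grown near confluence. Compounds were tested at twelve concentrations from 0.1 nM to 30 uM in duplicate, and 33P-phosphate uptake was counted by scintillation after lysis. Results are expressed as pIC50.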

With CCN(CC)c1ccc(NC(=O)c2cccc(CCCOCCOCCOCCOCCNS(=O)(=O)c3ccc(CCC(=O)N(CCOC)CCOCCOCCOCCOCCOCCOCCOC)cc3)c2)c(-c2cc(C(=O)NCc3cccc(C(F)(F)F)c3)ccn2)c1 [Example 295, 2-(5-(diethylamino)-2-(3-(1-(4-(23-(2-methoxyethyl)-24-oxo-2,5,8,11,14,17,20-heptaoxa-23-azahexacosan-26-yl)phenylsulfonamido)-3,6,9,12-tetraoxapentadecan-15-yl)benzamido)phenyl)-N-(3-(trifluoromethyl)benzyl)isonicotinamide] as the molecule, how does the IC50 read?
The IC50 was 1000 to 7940 nM.

With CCN(CC)c1ccc(NC(=O)c2cccc(CCCOCCOCCOCCOCCNS(=O)(=O)c3ccc(CCC(=O)NCCOCCOCCOCCOCCOCCOCCOC)cc3)c2)c(-c2cc(C(=O)NCc3cccc(C(F)(F)F)c3)ccn2)c1 [Example 296, 2-(5-(diethylamino)-2-(3-(1-(4-(24-oxo-2,5,8,11,14,17,20-heptaoxa-23-azahexacosan-26-yl)phenylsulfonamido)-3,6,9,12-tetraoxapentadecan-15-yl)benzamido)phenyl)-N-(3-(trifluoromethyl)benzyl)isonicotinamide] as the molecule, how does the IC50 read?
Its IC50 is 1000 to 7940 nM.

For CCN(CC)c1ccc(NC(=O)c2cccc(CCCOCCOCCOCCOCCNS(=O)(=O)c3ccc(CCC(=O)O)cc3)c2)c(-c2cc(C(=O)N[C@H]3CCCc4ccccc43)ccn2)c1 [Example 320], which IC50 is on record?
Its IC50 is < 1000 nM.

For CCN(CC)c1ccc(NC(=O)c2cccc(CCCOCCOCCOCCOCCNC(=O)C34CC5CC(CC(C5)C3)C4)c2)c(-c2cc(C(=O)N[C@H]3CCCc4ccccc43)ccn2)c1 [Example 322], which IC50 is on record?
Its IC50 is 1000 to 7940 nM.

For CCN(CC)c1ccc(NC(=O)c2cccc(CCCOCCOCCOCCOCCNC(=O)c3cc[nH]n3)c2)c(-c2cc(C(=O)N[C@H]3CCCc4ccccc43)ccn2)c1 [Example 323], which IC50 is on record?
Its IC50 is < 1000 nM.

With CCN(CC)c1ccc(NC(=O)c2cccc(CCCOCCOCCOCCOCCNC(=O)c3cccnc3)c2)c(-c2cc(C(=O)N[C@H]3CCCc4ccccc43)ccn2)c1 [Example 324] as the molecule, how does the IC50 read?
Its IC50 is < 1000 nM.

With CCN(CC)c1ccc(NC(=O)c2cccc(CCCOCCOCCOCCOCCNC(=O)c3ccc(O)cc3)c2)c(-c2cc(C(=O)N[C@H]3CCCc4ccccc43)ccn2)c1 [Example 325] as the molecule, how does the IC50 read?
The IC50 was < 1000 nM.

For CCN(CC)c1ccc(NC(=O)c2cccc(CCCOCCOCCOCCOCCNC(=O)c3cscn3)c2)c(-c2cc(C(=O)N[C@H]3CCCc4ccccc43)ccn2)c1 [Example 326], which IC50 is on record?
The IC50 was < 1000 nM.

For CN(CCOCCOCCOCCC(=O)OC(C)(C)C)CCN(C)C(=O)c1cccc(C(=O)Nc2ccc(N3CCCCC3)cc2-c2cc(C(=O)N[C@H]3CCCc4ccccc43)ccn2)c1 [Example 329, tert-butyl 3-methyl-1-[N-methyl-1-(3-{[4-(piperidin-1-yl)-2-(4-{[(1S)-1,2,3,4-tetrahydronaphthalen-1-yl]carbamoyl}pyridin-2-yl)phenyl]carbamoyl}phenyl)formamido]-6,9,12-trioxa-3-azapentadecan-15-oate], which IC50 is on record?
The IC50 was 1000 to 7940 nM.

For CCN(CC)c1ccc(NC(=O)c2cccc(CCCOCCOCCOCC[N+](CC)(CC)CC)c2)c(-c2cc(C(=O)NCc3cccc(C(F)(F)F)c3)ccn2)c1 [Example 330, 2-(2-(2-(3-(3-(4-(diethylamino)-2-(4-(3-(trifluoromethyl)benzylcarbamoyl)pyridin-2-yl)phenylcarbamoyl)phenyl)propoxy)ethoxy)ethoxy)-N,N,N-triethylethanaminium], which IC50 is on record?
The IC50 was 1000 to 7940 nM.

For CCN(CC)c1ccc(NC(=O)c2ccc(CCCOCCOCCOCC[N+]34CCC(CC3)CC4)cc2)c(-c2cc(C(=O)NCc3cccc(C(F)(F)F)c3)ccn2)c1 [Example 331, 1-(2-(2-(2-(3-(4-(4-(diethylamino)-2-(4-(3-(trifluoromethyl)benzylcarbamoyl)pyridin-2-yl)phenylcarbamoyl)phenyl)propoxy)ethoxy)ethoxy)ethyl)-1-azonia-bicyclo[2.2.2]octane], which “pIC50 range for rat Nap2b” value is on record?
Its value is 5.1-6.0.

With COCCOCCOCCOCCOCCOCCOCCN(C)C(=O)C1CCN(CCN(C)C(=O)c2cccc(C(=O)Nc3ccc(N4CCCCC4)cc3-c3cc(C(=O)N[C@H]4CCCc5ccccc54)ccn3)c2)CC1 [Example 334, (S)—N^1-(2-(4-(2,5,8,11,14,17,20-Heptaoxadocosan-22-yl(methyl)carbamoyl)piperidin-1-yl)ethyl)-N1-methyl-N3-(4-(piperidin-1-yl)-2-(4-(1,2,3,4-tetrahydronaphthalen-1-ylcarbamoyl)pyridin-2-yl)phenyl)isophthalamide] as the molecule, how does the IC50 read?
Its IC50 is 10000 to 31600 nM.

With CCN(CC)c1ccc(NC(=O)c2cccc(C(=O)N(C)CCN(C)CCOCCOCCOCCNC(C)=O)c2)c(-c2cc(C(=O)N[C@H]3CCCc4ccccc43)ccn2)c1 [Example 341, (S)—N^1-(4-(Diethylamino)-2-(4-(1,2,3,4-tetrahydronaphthalen-1-ylcarbamoyl)pyridin-2-yl)phenyl)-N^3-methyl-N^3-(3-methyl-16-oxo-6,9,12-trioxa-3,15-diazaheptadecyl)isophthalamide] as the molecule, how does the IC50 read?
The IC50 was 1000 to 7940 nM.

For CCN(CC)c1ccc(NC(=O)c2cccc(C(=O)N(C)CCN(C)CCOCCOCCOCCNC(=O)c3cccnc3)c2)c(-c2cc(C(=O)N[C@H]3CCCc4ccccc43)ccn2)c1 [Example 342, (S)—N^1-(4-(Diethylamino)-2-(4-(1,2,3,4-tetrahydronaphthalen-1-ylcarbamoyl)pyridin-2-yl)phenyl)-N^3-methyl-N^3-(14-methyl-1-oxo-1-(pyridin-3-yl)-5,8,11-trioxa-2,14-diazahexadecan-16-yl)isophthalamide], which IC50 is on record?
Its IC50 is 1000 to 7940 nM.

Which IC50 does the source give for CCN(CC)c1ccc(NC(=O)c2cccc(C(=O)N(C)CCN(C)CCOCCOCCOCCNC(=O)C3CCOCC3)c2)c(-c2cc(C(=O)N[C@H]3CCCc4ccccc43)ccn2)c1 [Example 343, (S)—N^1-(4-(Diethylamino)-2-(4-(1,2,3,4-tetrahydronaphthalen-1-ylcarbamoyl)pyridin-2-yl)phenyl)-N^3-methyl-N^3-(14-methyl-1-oxo-1-(tetrahydro-2H-pyran-4-yl)-5,8,11-trioxa-2,14-diazahexadecan-16-yl)isophthalamide] here?
The IC50 was 1000 to 7940 nM.

For CCN(CC)c1ccc(NC(=O)c2cccc(C(=O)N(C)CCN(C)CCOCCOCCOCCNC(=O)c3cscn3)c2)c(-c2cc(C(=O)N[C@H]3CCCc4ccccc43)ccn2)c1 [Example 344, (S)—N-(4-(Diethylamino)-2-(4-(1,2,3,4-tetrahydronaphthalen-1-ylcarbamoyl)pyridin-2-yl)phenyl)-N^3-methyl-N^3-(14-methyl-1-oxo-1-(thiazol-4-yl)-5,8,11-trioxa-2,14-diazahexadecan-16-yl)isophthalamide], which IC50 is on record?
The IC50 was < 1000 nM.

With CCN(CC)c1ccc(NC(=O)c2cccc(C(=O)N(C)CCN(C)CCOCCOCCOCCNC(=O)c3ccc(O)cc3)c2)c(-c2cc(C(=O)N[C@H]3CCCc4ccccc43)ccn2)c1 [Example 345, (S)—N^1-(4-(Diethylamino)-2-(4-(1,2,3,4-tetrahydronaphthalen-1-ylcarbamoyl)pyridin-2-yl)phenyl)-N^3-(1-(4-hydroxyphenyl)-14-methyl-1-oxo-5,8,11-trioxa-2,14-diazahexadecan-16-yl)-N^3-methylisophthalamide] as the molecule, how does the IC50 read?
The IC50 was 1000 to 7940 nM.

For CCN(CC)c1ccc(NC(=O)c2cccc(C(=O)N(C)CCN(C)CCOCCOCCOCCNC(=O)C(C)(C)C)c2)c(-c2cc(C(=O)NCc3cccc(C(F)(F)F)c3)ccn2)c1 [Example 346, N2-(4-(diethylamino)-2-(4-(3-(trifluoromethyl)benzylcarbamoyl)pyridin-2-yl)phenyl)-N^3-methyl-N^3-(3,17,17-trimethyl-16-oxo-6,9,12-trioxa-3,15-diazaoctadecyl)isophthalamide], which “pIC50 range for rat Nap2b” value is on record?
The value was 5.1-6.0.

Which IC50 does the source give for O=C(O)CCOCCOCCOCCOCCCc1cccc(C(=O)Nc2ccc(OC3CCCC3)cc2-c2cc(C(=O)N[C@H]3CCCc4ccccc43)ccn2)c1 [Example 347, (S)-16-(3-(4-(cyclopentyloxy)-2-(4-(1,2,3,4-tetrahydronaphthalen-1-ylcarbamoyl)pyridin-2-yl)phenylcarbamoyl)phenyl)-4,7,10,13-tetraoxahexadecan-1-oic acid] here?
Its IC50 is < 1000 nM.
